Tested on: ferrets
Assay: Emetine-induced retching tests on ferrets
Assay type: in vivo
Settings: for antiemetic effect: test substance 0.3 and 3.0 mg/kg p.o. 60 min before emetine
Experimental: Emetine-Induced Retching Tests on Ferrets:
The determination of the antiemetic action follows the method described by Gardner et al. in Brit. J. Pharmacol., 116, 3158-3163, 1995.
Sixty minutes before administration of the test substance, the ferrets were accommodated in individual stainless steel cages (40×50×34 cm) having a grid floor. The animals were then treated with emetine (2 mg/kg p.o.) and observed immediately for a period of 2 hours with a view to the following points: • number of ferrets which show signs of retching and vomiting; • latency up to initial retching (hours, minutes, seconds); • latency up to initial vomiting (hours, minutes, seconds); • retching (how often); • vomiting (how often); • number of nauseas; • average duration of the vomiting periods (minutes, seconds); • serious side effects on behavior.
Retching is defined according to the invention as a rhythmical respiratory movement against closed vocal cords, while vomiting is defined according to the invention as a forced expulsion of the higher stomach and intestinal contents.
32 ferrets were investigated. The substance tested was administered in two doses, orally sixty minutes before emetine administration, and compared to a control group. Ondansetrone (16 mg/kg p.o.) was given under the same experimental conditions and served as a reference substance.
The 32 ferrets were employed repeatedly in order to investigate 4 test substances. The administration scheme for the three-week experiment looked as follows:
The amounts were analyzed and the student's test was used in the comparison of the treated groups with the control group.
The […] data were analyzed, Fisher's exact probability test being used for the comparison of the treated groups with the control group.

[1] = ferrets given emetine 2 mg/kg p.o., vs control group
[2] = 16 mg/kg p.o., ferrets, emetine 2 mg/kg p.o., 2 h observation

In the case of `N#Cc1c(NCCO)nc(SCc2ccccc2)c(C#N)c1-c1ccccc1` [Substance 1], the antiemetic effect [1] is reported as “no significant antiemetic effect”.
With `COCCOc1ccc(-c2c(C#N)c(N)nc(SCc3cccnc3)c2C#N)cc1` [Substance 2] the antiemetic effect [1] was “no significant antiemetic effect”.
With `CC(=O)Nc1ccc(-c2c(C#N)c(N)nc(SCc3ccccn3)c2C#N)cc1` [Substance 3] the “prevention of emetine-induced vomiting” value (ferrets given emetine 2 mg/kg p.o., test substance in two doses orally 60 min before emetine, vs control group) was “significantly prevented”.
In the case of `Cc1nccn1CC1CCc2c(c3ccccc3n2C)C1=O` (centres unmarked) [ondansetrone, Ondansetrone, reference compound], the “number of ferrets in which emesis was induced” value [2] is reported as “one of 16” and the “quantitative occurrence of retching and vomiting (induced by emetine)” value [2] is reported as “significantly reduced”.
